Assay results published in article PMC12586598, “A novel long-acting C5a-blocking cyclic peptide prevents sepsis-induced organ dysfunction via effective blockade of the inflammatory cascade” (Signal Transduction and Targeted Therapy, 2025).
Where a SMILES comes first, the peptide text is derived from it.

What was measured:
[1] = mouse, 24 h
Description: The peptides in the plasma were extracted with 15% TFA and quantified via reversed-phase high-performance liquid chromatography (HPLC) (Agilent 1260, USA).

PMNs = assay: C5a-triggered chemotaxis assay, PMNs (IncuCyte); format: cell-based, human; conditions: 10 ng to 1 μg per well, 24 h
Description: The chemotaxis assay in this study was monitored and quantified by the IncuCyte ZOOM® Live-Cell Imaging System. The y-axis label “total area normalized to initial area in each group” in Fig. 3k, m represent the ratio of the total cell area at each time point to the initial area (0 h) within the same field of view. A higher ratio indicates […] cell migration activity.
One hundred nanograms of human C5a protein (ACROBiosystems, Beijing, China) was preincubated with linear or cyclic peptides at the indicated concentrations (10 ng, 100 ng, or 1 μg) in 1640 complete culture medium for 30 min. PMNs isolated by flow cytometric sorting for chemotaxis assays were purchased from Oribiotech Co., Ltd. (Shanghai, China). A total of 1 × 10^4 cells were added to the upper chamber of 96-well cell chemotaxis plates (Sartorius, Germany) and allowed to migrate at 37 °C for 24 h. The chemotactic response of neutrophils toward C5a with or without C5a-blocking peptides was quantified and analyzed via an IncuCyte ZOOM® Live-Cell Imaging System (Sartorius, Germany). The chemotactic response of mouse neutrophils was assessed following the established protocol for PMNs.

mouse C5a-desArg = target: T1, mouse C5a-desArg (Mus musculus, UniProt P06684); assay: SPR binding affinity assay, immobilized mouse C5a-desArg
T1 construct: mouse C5a-desArg (MCE, Shanghai, China); purchased MCE
T1 sequence (P06684 679-754 limits assumed): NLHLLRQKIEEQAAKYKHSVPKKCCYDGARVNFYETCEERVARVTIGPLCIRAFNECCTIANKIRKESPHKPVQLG
Description: Surface plasmon resonance (SPR) analysis was conducted using Biacore 2000 system (GE Healthcare, Germany) at 37°C in running buffer (20 mM Tris-HCl, pH 7.4, 150 mM NaCl, 5 mM KCl, 1 mM MgCl₂, 1 mM CaCl₂). The CM5 sensor chips (GE Healthcare) were activated with NHS/EDC, followed by immobilization of mouse C5a (ACROBiosystems, Beijing, China), human C5a (ACROBiosystems, Beijing, China), mouse C5 (ACROBiosystems, Beijing, China) or mouse C5a-desArg (MCE, Shanghai, China). The peptide-protein interactions were characterized using a concentration-gradient approach (low to high) with a continuous flow rate of 30 μL/min (150 s injection duration). Between analyte concentrations, the sensor surface was regenerated with 10 mM glycine-HCl (pH 2.0; 5 min treatment). Binding and dissociation constants were obtained by globally fitting the data to a 1:1 Langmuir binding model using a Biacore Insight evaluation software (Cytiva, USA).

CLP-induced septic mice [2] = assay: Organ function, coagulation and lung histology in CLP mice; format: in vivo, mouse; conditions: 24 h post-CLP surgery
Description: (§1) The cecal ligation and puncture (CLP) model was established in male C57BL/6 mice (9-10 weeks old). Briefly, a midline laparotomy was performed to exteriorize the cecum under general anesthesia. The cecum was ligated at the distal three-quarters using sutures. Subsequently, a single through-and-through puncture was made in the ligated segment using a 22-gaμge needle, followed by small volume of fecal content was gentle extrusion. The cecum was then repositioned within abdominal cavity, and the laparotomy incision was closed in layers. All animals were administered 1 mL of sterile saline for postoperative fluid resuscitation. Sham-operated controls underwent identical surgical procedures without cecal ligation or puncture. In this work, mice received administration via intravenous injection 1 hour after CLP surgery. The animal mortality was determined by the presence of confirmed death. […] Blood samples were collected 24 hours after CLP-modeling for hematological analysis (Mindray BC-60R Vet) and biochemical analysis (Mindray BS-240 Vet, China), endothelial injury analysis (Njjcbio, Nanjing) and coagulation analysis (Legene, Beijing). Subsequently, mice were sacrificed to collect the main organs for morphological and pathological analysis.

CLP-induced septic mice [3] = assay: Endothelial injury biomarkers and capillary leakage in CLP mice; format: in vivo, mouse; conditions: 24 h post-CLP surgery
Description: To evaluate microvascular leakage in the murine abdominal cavity, the mice received 100 μg of Cp1 via intravenous administration one hour after CLP surgery. Subsequently, 200 μL of 0.25% (w/v) Evans blue dye was injected intravenously for permeability quantification. Twenty-four hours later, the plasma and peritoneal lavage fluid (PLF) of the mice were collected and subjected to spectrophotometric measurement at 620 nm. To exclude hemoglobin interference, the serum absorbance values were corrected via the following formula: corrected A620 = A620 − (A405 × 0.014).[40] Vascular permeability was quantified by the A620 ratio of PLF to serum. To assess capillary leakage in pulmonary tissues, human plasma albumin (HSA) (1 mg/75 μL) was injected intravenously after CLP surgery and Cp1 administration. Twenty-four hours later, the HSA in the bronchoalveolar lavage fluid (BALF) and plasma samples was quantified via a HAS ELISA Kit (Cusabio, Wuhan), and the lung permeability index was calculated as the ratio of the HAS in the BALF to that in the plasma.
as §1

CLP model mice = assay: Routine blood test: neutrophils and monocytes in CLP model mice; format: in vivo, mouse; conditions: 100 μg/20 g i.v.
Description: The cecal ligation and puncture (CLP) model was established in male C57BL/6 mice (9-10 weeks old). Briefly, a midline laparotomy was performed to exteriorize the cecum under general anesthesia. The cecum was ligated at the distal three-quarters using sutures. Subsequently, a single through-and-through puncture was made in the ligated segment using a 22-gaμge needle, followed by small volume of fecal content was gentle extrusion. The cecum was then repositioned within abdominal cavity, and the laparotomy incision was closed in layers. All animals were administered 1 mL of sterile saline for postoperative fluid resuscitation. Sham-operated controls underwent identical surgical procedures without cecal ligation or puncture. In this work, mice received administration via intravenous injection 1 hour after CLP surgery. The animal mortality was determined by the presence of confirmed death. […] Subsequently, mice were sacrificed to collect the main organs for morphological and pathological analysis.

CSCC[C@@H]1NC(=O)[C@@H]2CCCN2C(=O)[C@H](CCSC)NC(=O)[C@H](CO)NC(=O)[C@H](Cc2c[nH]cn2)NC(=O)CNC(=O)[C@H](CO)NC(=O)[C@H](Cc2ccccc2)NC(=O)[C@H](CCCNC(=N)N)NC(=O)[C@H](CCC(=O)O)NC(=O)[C@H](Cc2ccccc2)NC(=O)[C@H](C(C)C)NC1=O [Cp1] (cyclo(HSMPMVFERFSG))
stability in normal plasma [1]: comparable stabilities
suppression of C5a-driven recruitment of PMNs (PMNs): dose-dependently suppressed
kon (mouse C5a-desArg; pH 7.4, read-out: Ka vs mC5a-desArg (SPR)): 2490 M⁻¹ s⁻¹
koff (mouse C5a-desArg; read-out: Kd (dissociation rate) vs mC5a-desArg (SPR)): 0.0089 s⁻¹
LDH and LAC levels (CLP-induced septic mice [2]; 100 μg/20 g): marked reduction
coagulation function parameters (PT, APTT, TT, Fbg) (CLP-induced septic mice [2]; 100 μg/20 g): attenuated the sepsis-induced changes in the clotting and fibrinolytic systems
serum ALT and AST levels (liver function) (CLP-induced septic mice [2]; 100 μg/20 g): effectively mitigated the increase
serum UREA and CREA levels (kidney injury) (CLP-induced septic mice [2]; 100 μg/20 g, vs untreated CLP mice): significantly lower
lung injury, H&E pathological sections (CLP-induced septic mice [2]): significantly ameliorated sepsis-induced pulmonary vascular leakage
decrease of circulating E-selectin vs CLP group (CLP-induced septic mice [3]; 100 μg/20 g): 71%
decrease of circulating PAI-1 vs CLP group (CLP-induced septic mice [3]; 100 μg/20 g): 93%
decrease of circulating VCAM-1 vs CLP group (CLP-induced septic mice [3]; 100 μg/20 g): 100%
decrease of Evans blue leakage (PLF/Serum) (CLP-induced septic mice [3]; vs untreated CLP group): 54%
decrease of HAS leakage (BALF/Serum) (CLP-induced septic mice [3]; vs untreated CLP group): 83%
reduction in lung wet-to-dry weight ratio (W/D ratio) (CLP-induced septic mice [3]; vs untreated CLP group): 85%
increase of absolute monocyte count (delayed peak) vs sham group (CLP model mice; 12 h): 69%
reduction in absolute neutrophil count vs CLP group (CLP model mice; 12 h): 63%
reduction in absolute monocyte count vs the 4-h peak value in the CLP group (CLP model mice; peak at 12 h): 38%
